Tests used:
Test in all cases: Germination induction, change of turbidity (630 nm) of spore suspension
Format in all cases: cell-based
[1] = test system: Bacillus coagulans (NBRC 12583); conditions: 300 ppm; for turbidity (630 nm): 37° C., 150 rpm; for germination confirmed by turbidity decrease: up to 180 min
[2] = test system: Bacillus amyloliquefaciens (NBRC 3022); conditions: 300 ppm; for turbidity (630 nm): 37° C., 150 rpm; for germination confirmed by turbidity decrease: up to 180 min
[3] = test system: Bacillus subtilis sp spizizenii (NBRC 101239); conditions: 300 ppm; for turbidity (630 nm): 37° C., 150 rpm
[4] = test system: Bacillus subtilis C-3102 (FERM BP-1096); conditions: 300 ppm; for turbidity (630 nm): 37° C., 150 rpm; for germination confirmed by turbidity decrease: up to 180 min
[5] = 0 min after reaction initiation
[6] = 10 min after reaction initiation
[7] = 20 min after reaction initiation
[8] = 30 min after reaction initiation
[9] = 40 min after reaction initiation
[10] = 50 min after reaction initiation
[11] = 60 min after reaction initiation
[12] = 90 min after reaction initiation
[13] = 120 min after reaction initiation
[14] = 180 min after reaction initiation

COc1cc(/C=C/C(=O)O)ccc1O [Ferulic acid, ferulic acid]
turbidity (630 nm) [1, 5]: 0.558 | turbidity (630 nm) [1, 6]: 0.520 | turbidity (630 nm) [1, 7]: 0.518 | turbidity (630 nm) [1, 8]: 0.510 | turbidity (630 nm) [1, 9]: 0.460 | turbidity (630 nm) [1, 10]: 0.392 | turbidity (630 nm) [1, 11]: 0.350 | turbidity (630 nm) [1, 12]: 0.266 | turbidity (630 nm) [1, 13]: 0.217 | turbidity (630 nm) [1, 14]: 0.198 | germination confirmed by turbidity decrease [1]: the turbidity decreased | turbidity (630 nm) [2, 5]: 0.522 | turbidity (630 nm) [2, 6]: 0.447 | turbidity (630 nm) [2, 7]: 0.400 | turbidity (630 nm) [2, 8]: 0.328 | turbidity (630 nm) [2, 9]: 0.234 | turbidity (630 nm) [2, 10]: 0.192 | turbidity (630 nm) [2, 11]: 0.133 | turbidity (630 nm) [2, 12]: 0.094 | turbidity (630 nm) [2, 13]: 0.067 | turbidity (630 nm) [2, 14]: 0.030 | germination confirmed by turbidity decrease [2]: the turbidity decreased | turbidity (630 nm) [3, 5]: 0.534 | turbidity (630 nm) [3, 6]: 0.512 | turbidity (630 nm) [3, 7]: 0.495 | turbidity (630 nm) [3, 8]: 0.471 | turbidity (630 nm) [3, 9]: 0.458 | turbidity (630 nm) [3, 10]: 0.439 | turbidity (630 nm) [3, 11]: 0.414 | turbidity (630 nm) [3, 12]: 0.362 | turbidity (630 nm) [3, 13]: 0.306 | turbidity (630 nm) [3, 14]: 0.224 | germination confirmed by turbidity decrease ([3]; up to 180 min): germination was confirmed | turbidity (630 nm) [4, 5]: 0.602 | turbidity (630 nm) [4, 6]: 0.578 | turbidity (630 nm) [4, 7]: 0.558 | turbidity (630 nm) [4, 8]: 0.548 | turbidity (630 nm) [4, 9]: 0.535 | turbidity (630 nm) [4, 10]: 0.506 | turbidity (630 nm) [4, 11]: 0.493 | turbidity (630 nm) [4, 12]: 0.471 | turbidity (630 nm) [4, 13]: 0.430 | turbidity (630 nm) [4, 14]: 0.335 | germination confirmed by turbidity decrease [4]: the turbidity decreased

COc1cc(C(=O)O)ccc1O [Vanillic acid, vanillic acid]
turbidity (630 nm) [1, 5]: 0.590 | turbidity (630 nm) [1, 6]: 0.528 | turbidity (630 nm) [1, 7]: 0.490 | turbidity (630 nm) [1, 8]: 0.430 | turbidity (630 nm) [1, 9]: 0.390 | turbidity (630 nm) [1, 10]: 0.335 | turbidity (630 nm) [1, 11]: 0.290 | turbidity (630 nm) [1, 12]: 0.225 | turbidity (630 nm) [1, 13]: 0.180 | turbidity (630 nm) [1, 14]: 0.137 | germination confirmed by turbidity decrease [1]: the turbidity decreased | turbidity (630 nm) [2, 5]: 0.548 | turbidity (630 nm) [2, 6]: 0.402 | turbidity (630 nm) [2, 7]: 0.295 | turbidity (630 nm) [2, 8]: 0.221 | turbidity (630 nm) [2, 9]: 0.150 | turbidity (630 nm) [2, 10]: 0.100 | turbidity (630 nm) [2, 11]: 0.076 | turbidity (630 nm) [2, 12]: 0.047 | turbidity (630 nm) [2, 13]: 0.021 | turbidity (630 nm) [2, 14]: 0.018 | germination confirmed by turbidity decrease [2]: the turbidity decreased | turbidity (630 nm) [3, 5]: 0.529 | turbidity (630 nm) [3, 6]: 0.520 | turbidity (630 nm) [3, 7]: 0.516 | turbidity (630 nm) [3, 8]: 0.512 | turbidity (630 nm) [3, 9]: 0.510 | turbidity (630 nm) [3, 10]: 0.510 | turbidity (630 nm) [3, 11]: 0.502 | turbidity (630 nm) [3, 12]: 0.488 | turbidity (630 nm) [3, 13]: 0.479 | turbidity (630 nm) [3, 14]: 0.474 | turbidity (630 nm) [4, 5]: 0.604 | turbidity (630 nm) [4, 6]: 0.575 | turbidity (630 nm) [4, 7]: 0.551 | turbidity (630 nm) [4, 8]: 0.543 | turbidity (630 nm) [4, 9]: 0.505 | turbidity (630 nm) [4, 10]: 0.483 | turbidity (630 nm) [4, 11]: 0.461 | turbidity (630 nm) [4, 12]: 0.432 | turbidity (630 nm) [4, 13]: 0.390 | turbidity (630 nm) [4, 14]: 0.266 | germination confirmed by turbidity decrease [4]: the turbidity decreased

Source: patent publication US20140308733A1, “METHOD FOR INDUCING GERMINATION OF SPORE FORMING BACTERIUM” (CALPIS CO., LTD., priority 2011, published 2014)
